Reference: BindingDB's records for doi:10.1016/s0006-2952(97)00433-4 (Tokyo Dental College, 1998)
Several values for one entry are separate records, joined by “and”; a condition that tells them apart may be missing. Identical values can stand only once.

Molecular target: Gamma-aminobutyric acid receptor subunit alpha-1 (Rattus norvegicus, UniProt P62813)
Sequence (P62813 whole entry): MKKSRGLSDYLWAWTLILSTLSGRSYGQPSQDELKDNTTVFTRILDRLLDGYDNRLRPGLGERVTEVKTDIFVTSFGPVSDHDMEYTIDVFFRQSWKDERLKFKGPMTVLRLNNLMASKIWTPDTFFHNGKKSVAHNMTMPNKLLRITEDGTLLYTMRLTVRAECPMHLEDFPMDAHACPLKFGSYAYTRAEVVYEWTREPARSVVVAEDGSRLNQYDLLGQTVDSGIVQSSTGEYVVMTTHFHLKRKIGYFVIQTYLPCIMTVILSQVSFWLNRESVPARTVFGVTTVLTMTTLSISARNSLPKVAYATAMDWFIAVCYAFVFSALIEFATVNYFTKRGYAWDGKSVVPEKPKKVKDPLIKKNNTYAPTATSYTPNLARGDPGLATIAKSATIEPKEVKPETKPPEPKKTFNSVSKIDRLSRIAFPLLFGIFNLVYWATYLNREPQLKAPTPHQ

In the case of `CCOC(=O)c1cc2c(cn1)[nH]c1ccccc12`, the Ki is reported as 2920 nM.

`OCCN(CCO)c1nc(N2CCCCC2)c2nc(N(CCO)CCO)nc(N3CCCCC3)c2n1` [Dipyridamine] was tested, and the Ki was 87.9 nM and 162 nM.
